In patent US20210161868A1, “ANTI-INFLAMMATORY THERAPY IN ARRHYTHMOGENIC CARDIOMYOPATHY (ACM)” (Beth Israel Deaconess Medical Center, Inc., priority 2018, published 2021):
Entries after “also recorded” stand apart in the source; their conditions may differ.

Tested on: neonatal rat ventricular myocytes (NRVMs) expressing JUP^2157del2
Assay: In vitro apoptosis assay (TUNEL) in NRVMs expressing mutant plakoglobin
Type: cell-based
Settings: transfected NRVMs, 24 hours
Description: Primary cultures were prepared from disaggregated ventricles of 1-day-old Wistar rat pups (Charles River) as previously described.^15 Cell suspensions were pre-plated to reduce fibroblast content, placed in collagen-coated chamber slides at a density of 2.4×10^5 cells/cm^2, and grown for 4 days at 37° C. in M199 medium (GIBCO) (supplemented with penicillin, 20 U/mL; streptomycin, 20 μg/mL; 10% neonatal calf serum and 0.1 mM bromodeoxyuridine) in a humidified atmosphere containing 1% CO2. Epinephrine (0.01 μmol/mL) was added during the first 24 hours of culture. At 24 hours post-seeding, cultures were transfected with an adenoviral construct expressing plakoglobin (JUP) with the 2157del2 mutation, as previously reported.^15 At 24 hours post-transfection, cultures were treated with Bay11-7082 (Sigma, […]) for an additional 24 hours. Transfected cultures treated with vehicle only (DMSO) and non-transfected cultures were used for control purposes.
Terminal deoxynucleotidyl transferase dUTP nick end labeling (TUNEL) was performed on neonatal rat myocyte cultures according to the manufacturer's protocol (Millipore, S7110). The number of TUNEL-positive nuclei was counted in 5 randomly selected high-power fields in each culture well and expressed as a per cent of total nuclei visualized with DAPI.

Cc1ccc(S(=O)(=O)/C=C/C#N)cc1 [Bay 11-7082]
myocyte apoptosis, TUNEL labeling: normalization; also recorded: returned to control levels
